# B1: MBP: myelin basic protein, a negative control (protein, UniProt P02686 1-304, looked up)
# Myelin basic protein: MGNHAGKRELNAEKASTNSETNRGESEKKRNLGELSRTTSEDNEVFGEADANQNNGTSSQDTAVTDSKRTADPKNAWQDAHPADPGSRPHLIRLFSRDAPGREDNTFKDRPSESDELQTIQEDSAATSESLDVMASQKRPSQRHGSKYLATASTMDHARHGFLPRHRDTGILDSIGRFFGGDRGAPKRGSGKDSHHPARTAHYGSLPQKSHGRTQDENPVVHFFKNIVTPRTPPPSQGKGRGLSLSRFSWGAEGQRPGFGYGGRASDYKSAHKGFKGVDAQGTLSKIFKLGGRDSRSGSPMARR
# System: IL-2 mRNA in LN cells
# Assay: IL-2 mRNA by real-time PCR in LN cells of GA-immunized CD-1, BALB/cByJ, SJL/J mice (Example III)
# Assay type: cell-based, mouse
# Details: 6 hours
# Method: On Day 0, mice were immunized with 250 μg GA (GMA, Mylan Pharmaceuticals, Inc.) and CFA. The GA solution (20 mg/mL) was diluted with Dulbecco's Phosphate-Buffered Saline to 5 mg/mL. The dosing formulation consisted of equal volumes of the diluted GA solution (5 mg/mL) and CFA solution, mixed until well-emulsified. Animals were weighed and allocated to groups. Animals were dosed by injection into four footpads. The injection volume per animal was 0.1 mL (about 10 μL into each front footpad, and 40 μL into each hind footpad).
# Immunized animals were euthanized by cervical dislocation on Day 10 post-immunization. Lymph node cells were isolated from animals and treated with Myelin Basic Protein (MBP, a negative control), Concanavalin A (ConA, a positive control) or GA as shown in Table 16. Lymph nodes in the axillary and popliteal regions were removed aseptically in a purifier clean bench. […] The LN were then washed 3 times with −5 mL of RPMI medium, and isolated by pressing the LN with a syringe plunger. […] The cell suspension was centrifuged at about 200×g for 10 minutes at about 4° C. and re-suspended in ice cold enriched DCCM-1 medium. Cells were seeded in 96-well tissue culture plates.
# LN cells isolated from GA-immunized animals were stimulated with GA (GMA, Mylan Pharmaceuticals, Inc.) at concentrations as indicated in Tables 16 and 17. A positive control was prepared by treating LN cells with 2.5 μg/mL concavalin A (ConA, a non-specific T cell stimulant). Myelin basic protein (MBP, 10 μg/mL) and enriched DCCM-1 medium served as negative controls. The cells from all groups each were stimulated with the same GA lot. Each reaction was set up in triplicate.
# After incubation at about 37° C. in a humidified CO2 incubator for 6 hours, the cells were lysed for total RNA isolation. Total RNA was isolated from treated LN cells using SV 96 Total RNA Isolation System according to the manufacturer's protocol (Promega, Cat. #Z3500). Cells were washed once with Phosphate Buffered Saline (PBS) and lysed in RNA lysis buffer. The lysate was transferred to wells of the SV 96 binding plate. Samples were washed with RNA wash solution and treated with DNase. Total RNA was eluted with nuclease-free water from the binding plate.
# After the reverse transcriptase reaction was completed, cDNA samples were used directly for real-time PCR to measure the response biomarker mRNA levels produced by the stimulated cells. […] All probes for target genes contained FAM dye, and probes for the internal control contained VIC®/MGB dye. Samples will be prepared and run in 96-well plates using a Real-Time PCR system (7500, Life Technologies). This system allows direct detection of PCR-product formation by measuring the increase in fluorescent emission continuously during the PCR reaction. A relative quantitation method was used to analyze changes in mouse IL-2, IL-4, IL-5, IL-10, IL-13, IFN-γ and TNF-α expression in GA-treated samples relative to the untreated control (enriched DCCM-1 treated) samples. The Real-Time PCR program was:
# The levels of mouse cytokine amplicons (IL-2, IL-4, IL-5, IL-10, IL-13, mIFN-γ and TNF-α) were normalized to internal probe levels (GAPDH) from the same samples. The following equations were used to calculate the relative increase in response to GA stimulation compared to the control sample: ΔCT=CT_target−CT_reference ΔΔCT=−ΔCT_Treated−CT_VC
# [1] = Group 1C: CD-1, GA-immunized, stimulation 10 μg/mL
# [2] = Group 2C: BALB/cByJ, GA-immunized, stimulation 10 μg/mL
# [3] = Group 3C: SJL/J, GA-immunized, stimulation 10 μg/mL
Molecule,"IL-2 mRNA Expression (Group 1C: CD-1, GA-immunized, stimulation 2.5 μg/mL)","IL-2 mRNA Expression (Group 2C: BALB/cByJ, GA-immunized, stimulation 2.5 μg/mL)","IL-2 mRNA Expression (Group 3C: SJL/J, GA-immunized, stimulation 2.5 μg/mL)","IL-2 mRNA Expression (Group 1C: CD-1, GA-immunized, stimulation 0.3 μg/mL)","IL-2 mRNA Expression (Group 1C: CD-1, GA-immunized, stimulation 1 μg/mL)","IL-2 mRNA Expression (Group 1C: CD-1, GA-immunized, stimulation 3 μg/mL)",IL-2 mRNA Expression [1],"IL-2 mRNA Expression (Group 2C: BALB/cByJ, GA-immunized, stimulation 0.3 μg/mL)","IL-2 mRNA Expression (Group 2C: BALB/cByJ, GA-immunized, stimulation 1 μg/mL)","IL-2 mRNA Expression (Group 2C: BALB/cByJ, GA-immunized, stimulation 3 μg/mL)",IL-2 mRNA Expression [2],"IL-2 mRNA Expression (Group 3C: SJL/J, GA-immunized, stimulation 0.3 μg/mL)","IL-2 mRNA Expression (Group 3C: SJL/J, GA-immunized, stimulation 1 μg/mL)","IL-2 mRNA Expression (Group 3C: SJL/J, GA-immunized, stimulation 3 μg/mL)",IL-2 mRNA Expression [3]
"Concanavalin A [ConA, reference compound]",17.1 fold change vs control,231.7 fold change vs control,61.9 fold change vs control,–,–,–,–,–,–,–,–,–,–,–,–
"L-glutamic acid polymer with L-alanine, L-lysine and L-tyrosine, acetate (salt) [GA]",–,–,–,1.0 fold change vs control,1.6 fold change vs control,2.9 fold change vs control,4.3 fold change vs control,4.0 fold change vs control,11.7 fold change vs control,27.4 fold change vs control,38.0 fold change vs control,1.3 fold change vs control,4.7 fold change vs control,11.0 fold change vs control,22.0 fold change vs control
B1,–,–,–,–,–,–,0.9 fold change vs control,–,–,–,2.7 fold change vs control,–,–,–,0.5 fold change vs control

# Source: US10344330B2, “Glatiramer acetate response biomarker mRNA potency assay” (Mylan Inc., priority 2013, dated 2019)
